We go through one compound from ChEMBL document CHEMBL1121424, “Orally active cephalosporins and penicillins” (J Med Chem, 1980).

A word on the ED50: it is the midpoint of the dose-response relation. Low values mean greater potency, high ones weaker potency. As usually defined, the MIC is the least concentration at which growth counts as inhibited. A lower MIC goes with greater potency.

Series [1] has as its system Streptococcus pneumoniae. The series is described as follows: (§1) Tested for the antimicrobial activity against Streptococcus pneumoniae in mice. Type of series: functional.
For the next series, the system named is Enterococcus faecalis. The series is described as follows: Tested for inhibition of visible growth of Streptococcus faecalis. The format is functional.
The nature of series [2]: Tested for inhibition of visible growth of Salmonella schottmuelleri. Type of series: functional.
In series [3] the test system is Streptococcus pyogenes. The series is described as follows: Tested for inhibition of visible growth of Streptococcus pyogenes. The format is functional.
The test system of series [4] is Streptococcus pyogenes. The series is described as follows: (§2) Tested for the antimicrobial activity against Streptococcus pyogenes in mice. The format is functional.
Series [5] deals with Streptococcus pneumoniae. The description is as §1. Type of series: functional. The source holds these as a separate data set.
The test system of the next series is Klebsiella aerogenes. The series is described as follows: Tested for inhibition of visible growth of Enterobacter aerogenes. Type of series: functional.
A further series relates to Enterobacter cloacae. The series is described as follows: Tested for inhibition of visible growth of Enterobacter cloacae. Type of series: functional.
Series [6] relates to Staphylococcus aureus. The series is described as follows: Tested for inhibition of visible growth of Staphylococcus aureus, benzyl-penicillin sensitive. The format is functional.
In series [7] the test system is Streptococcus pyogenes. The series is described as §2. The format is functional. The source holds these as a separate data set.
Series [8] can be described thus: (§3) Tested for the antimicrobial activity against Salmonella schottmuelleri in mice. Type of series: functional.
The test system of the next series is Klebsiella pneumoniae. The series is described as follows: Tested for inhibition of visible growth of Klebsiella pneumoniae. Type of series: functional.
The test system of series [9] is Escherichia coli. The series is described as follows: Tested for inhibition of visible growth of Escherichia coli. The format is functional.
Series [10] in a line: as §3. The format is functional. This is another data set of the same source.
Series [11] relates to Streptococcus pneumoniae. The series is described as follows: Tested for inhibition of visible growth of Streptococcus pneumoniae. The format is functional.
The test system of series [12] is Escherichia coli. The series is described as follows: Tested for the antimicrobial activity against Escherichia coli in mice perorally. The following applies: po. The format is functional.
Series [13] can be described thus: Tested for the peak time in mice following 12.5 mg/kg oral dose of cephalosporin. On the set-up: dose 12.5 mg/kg, route oral. Type of series: ADME, organism-based. Conditions: mouse, in vivo, read-out: Peak time (converted).
The next series concerns Proteus mirabilis. The series is described as follows: Tested for inhibition of visible growth of Proteus mirabilis. The format is functional.
The test system of series [14] is Staphylococcus aureus. The series is described as follows: Tested for inhibition of visible growth of Staphylococcus aureus. The format is functional.
Series [15] deals with Staphylococcus aureus. The series is described as follows: Tested for the antimicrobial activity against Staphylococcus aureus. Type of series: functional.
The subject of series [16] is Escherichia coli. The series is described as follows: Tested for the antimicrobial activity against Escherichia coli in mice. Type of series: functional.
Series [17] relates to Staphylococcus aureus. The series is described as follows: Tested for the antimicrobial activity against Staphylococcus aureus, benzyl-penicillin sensitive in mice, perorally. Type of series: functional. Conditions: po.

Structures are written as SMILES. Converted amounts (≈) assume the structure as drawn.

As to `N[C@@H](C(=O)NC1C(=O)N2C(C(=O)O)=C(CSc3c[nH]nn3)CSC12)c1ccc2c(c1)OCO2` (some centres not stated), the median effective dose (ED50) came to 5 mg/kg in the series on Streptococcus pneumoniae [1]; 0.41 mg/kg with Streptococcus pyogenes [4]; 4.1 mg/kg in the series with Streptococcus pneumoniae [5]; 0.32 mg/kg in the series with Streptococcus pyogenes [7]; 8.1 mg/kg in series [8]; 12.5 mg/kg in series [10]. Moreover, the ED50 in the series on Escherichia coli [12] was 24.8 mg/kg; in the series on Staphylococcus aureus [15] it was 0.13 mg/kg; in the series with Escherichia coli [16], 9.1 mg/kg; in the series with Staphylococcus aureus [17] it was 0.7 mg/kg. In addition, the MIC against Enterococcus faecalis is 50 µg/mL (≈ 102 µM); in series [2], 1.6 µg/mL (≈ 3.26 µM); in the series on Streptococcus pyogenes [3] it was 0.2 µg/mL (≈ 0.408 µM); in the series on Klebsiella aerogenes, 50 µg/mL (≈ 102 µM); in the series on Enterobacter cloacae it was 50 µg/mL (≈ 102 µM); against Staphylococcus aureus [6], 0.4 µg/mL (≈ 0.815 µM). Moreover, the MIC in the series with Klebsiella pneumoniae came to 3.1 µg/mL (≈ 6.32 µM); with Escherichia coli [9] it was 12.5 µg/mL (≈ 25.5 µM); in the series with Streptococcus pneumoniae [11], 0.2 µg/mL (≈ 0.408 µM); against Proteus mirabilis it was 50 µg/mL (≈ 102 µM); against Staphylococcus aureus [14], 0.8 µg/mL (≈ 1.63 µM). For the same compound, the Tmax in series [13] was 20 min.
